Values quoted from earlier work, collected in PMC4610388 (European journal of medicinal chemistry, 2015).

Legend:
[1] = tested on: mammalian dihydrofolate reductases
[2] = target: E. coli DHFR (Escherichia coli, UniProt P0ABQ4); conditions: previous study from the authors' lab
Chain of E. coli DHFR (P0ABQ4 whole entry): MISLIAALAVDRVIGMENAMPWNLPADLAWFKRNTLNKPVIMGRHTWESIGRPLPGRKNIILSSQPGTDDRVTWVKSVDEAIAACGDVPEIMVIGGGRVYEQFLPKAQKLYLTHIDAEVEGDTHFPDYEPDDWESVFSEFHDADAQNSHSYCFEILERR

SMILES | inhibition of mammalian dihydrofolate reductases [1] | slow-onset tight binding behaviour [2]
Nc1nnc(-c2cccc(Cl)c2Cl)c(N)n1 [Lamotrigine, 6-(2,3-dichlorophenyl)-1,2,4-triazine-3,5-diamine] | weakly inhibit | –
Nc1nc(N)c2c(ccc3[nH]ccc32)n1 [NSC339578, 7H–pyrrolo [3,2-f] quinazoline-1,3-diamine] | – | does not show slow-onset of inhibition
